“And” between values parts separate entries of the source, which are not always exact repeats. Equal values may be shown once. Read-outs that look alike come from different tables or passages of the source.

The target in assay [1] is T1, Soybean Lipoxygenase (SLOX) (Glycine max, UniProt P08170).
T1 sequence (P08170 1-839): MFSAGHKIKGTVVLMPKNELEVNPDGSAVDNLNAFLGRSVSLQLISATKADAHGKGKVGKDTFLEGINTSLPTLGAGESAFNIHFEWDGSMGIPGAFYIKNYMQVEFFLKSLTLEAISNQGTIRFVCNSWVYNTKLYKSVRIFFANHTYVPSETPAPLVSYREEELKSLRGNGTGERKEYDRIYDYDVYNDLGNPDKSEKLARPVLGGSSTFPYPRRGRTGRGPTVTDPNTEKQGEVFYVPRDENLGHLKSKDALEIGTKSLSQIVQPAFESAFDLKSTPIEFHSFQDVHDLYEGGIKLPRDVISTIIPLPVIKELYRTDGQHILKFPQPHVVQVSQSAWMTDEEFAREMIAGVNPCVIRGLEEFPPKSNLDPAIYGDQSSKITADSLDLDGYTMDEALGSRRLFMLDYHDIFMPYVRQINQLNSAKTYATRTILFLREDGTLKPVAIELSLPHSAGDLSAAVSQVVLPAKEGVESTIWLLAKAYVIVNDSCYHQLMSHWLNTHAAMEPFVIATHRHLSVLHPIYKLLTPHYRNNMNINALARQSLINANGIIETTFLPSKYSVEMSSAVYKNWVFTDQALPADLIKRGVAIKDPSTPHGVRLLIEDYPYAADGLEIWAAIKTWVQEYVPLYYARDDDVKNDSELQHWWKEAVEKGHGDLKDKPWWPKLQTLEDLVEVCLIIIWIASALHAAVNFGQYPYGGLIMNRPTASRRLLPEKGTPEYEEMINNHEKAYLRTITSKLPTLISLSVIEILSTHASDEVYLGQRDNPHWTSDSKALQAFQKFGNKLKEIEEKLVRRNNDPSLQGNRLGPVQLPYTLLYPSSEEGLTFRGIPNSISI
Briefly: In vitro inhibition of soybean lipoxygenase (UV absorbance-based enzyme assay). Type of assay: biochemical. The conditions noted are these: for IC50: soybean LOX, sodium linoleate substrate, pH 9. As to the method: The experimental conditions followed our previously reported protocol. Sodium linoleate was used as a substrate (0.1 mM) with 0.2 mL of the saline solution of SLOX (1/9 × 10^−4 w/v) in the Tris buffer pH 9.

Assay [2] relates to SH-SY5Y human neuroblastoma cells. The assay is described as follows: Anti-necrotic effect: LDH release after OGD (4 h) and 24 h OGR (IR). The following applies: OGD 4 h + 24 h OGR (IR); for IC50: compounds 0.1 μM to 1 mM, read-out: LDH Release Inhibition IC50 ±SEM; for Emax: read-out: Maximal Inhibition Mean±SEM (LDH release). It is filed as cell-based. As to the method:
(§1) To induce experimental ischemia, and the sub-consequent cellular damage, the neuroblastoma cultures underwent OGD for 3–4 h, maintained in a glucose-free Dulbecco’s medium inside an anaerobic chamber in the presence of a gas mixture of 95% N2/5% CO2 and humidified at 37 °C at a constant pressure of 0.15 bar. After the OGD period (4 h), medium was substituted by oxygenated 10% FCS-containing medium, and cells were incubated in conditions of normoxia for 24 h to recovery (R24h). The compounds used in the neuroprotection studies: nitrones 9a–i, α-phenyl-N-tert-butyl nitrone (PBN) and N-acetyl-L-cysteine (NAC) (0.01 μM−1000 µM), were added at the beginning of R24h as described. Concurrently, controls in the absence of the OGD procedure were performed by maintaining these cells with Dulbecco’s medium including glucose for 3–4 h in an incubator in conditions of normoxia during the OGD period; thereafter, the medium was changed, and the cells (in the presence or absence of the different study compounds) were returned to the incubator for 24 h of recovery, as described. In addition, experiments including the same amounts of vehicle (final concentration < 1% dimethyl sulfoxide) were performed, serving as controls. The effects of nitrones 9a–g were analyzed three-five times independently using different culture batches, and each experiment was carried out in triplicate.
Anti-necrotic cell activity was evaluated by culturing SHSY5Y cells in 48-well dishes, in a density of 2 × 10^5 cells/well and treating them as controls or under the OGD-R24h procedure, adding the testing compounds at 0.01–1000 µM (see point 4.2.2.). Media of every well were collected in Eppendorf tubes properly labelled and stored at −20 °C until measurement (samples would be needed to measure extracellular NADH). Afterwards, each well was recharged with a 0.1 M Phosphate Buffer with 0.5% Triton X-100, pH 7.5, in order to scratch the cells from the bottom of the well. After a 13.000 rpm centrifugation, the soluble fractions are collected and labelled (samples would be essential to measure intracellular NADH). Finally, LDH activity was quantified as the degree of absorbance declined at 340, indicating the oxidation of NADH to NAD+ as described. Results are expressed as the LDH activity of the extracellular medium referred to the total LDH activity after cell lysis.

Assay [3] in a line: ABTS radical cation decolorization assay. The conditions noted are these: tested at 100 µM. The procedure:
Approximately 10 µL of the tested compounds in DMSO (100 µM final concentration) were mixed with 200 µL of ABTS∙^+ (100 mM) and 790 µL absolute ethanol. The absorbance value was recorded 1 min after mixing at 734 nm and compared to Trolox.

Assay [4] deals with SH-SY5Y human neuroblastoma cells. The assay is described as follows: Neuroprotection: cell viability (XTT metabolic activity) after OGD (4 h) followed by OGR (24 h) (IR). It is filed as cell-based. The following applies: OGD 4 h + OGR 24 h (IR); for Emax: 24 h, read-out: Maximal Activity mean±SEM (neuroprotection); for EC50: compounds 0.01 μM to 1 mM, read-out: Neuroprotection EC50 ± SEM. The procedure: Cultures of human neuroblastoma cells from line SH-SY5Y were performed in flasks containing Dulbecco’s: Ham’s F12, 1:1 [v/v] composed of 0.5 mM sodium pyruvate, 2.5 mM GlutaMAX™; GIBCO, Life Technologies, Madrid (Spain), 3.15 mg/mL glucose, 1% Antibiotic-Antimycotic (100 ui/mL penicillin, […] streptomycin, and 0.25 mg amphotericin B), 1% Gentamicin 15 mg/mL (Sigma-Aldrich, Madrid, Spain) and 10% Fetal Calf Serum (FCS) (Gibco; Life Technologies, Madrid, Spain) as as described. For each experiment, neuroblastoma cells were digested partially with 0.25% trypsin-EDTA and seeded in plates of 96 or 48 wells with a density of 0.5–1 or 2–2.5 × 10^5 cells/well, respectively, depending on the assay. At 80% confluence of the seeded cells, medium was renewed adding 0.1–1000 µM of the compounds tested.
as §1
Cell viability measurements were carried out in human neuroblastoma cells SHSY5Y using 96-well culture plates, containing about 0.5–1 × 10^5 cells/well, after the OGD-R24h or control treatment including 0.01–1000 µM of the different testing compounds (nitrones 9a–g, PBN, and NAC), utilizing the Cell Proliferation Kit II (XTT), Sigma Aldrich, Madrid, Spain, which determines the culture’s metabolic capacity, as described in [21, 22]. XTT solution (0.3 mg/mL final concentration) was added to the seeded cells, incubated for 2 h at 37 °C with 5% CO2 and 95% air (v/v), and a spectrophotometer reader (Biotek Power-Wave XS microplate-reader (BioTek Instruments, Madrid, Spain) was used to register the absorbance at 450 nm (reference 650 nm) of the soluble formazan product generated. 100% viability was set by control normoxic cells treated with medium only, and control cells were added 0.001–1% DMSO in every assay.

For the compound `Cc1cn(C/C=[N+](/C)[O-])c(=O)[nH]c1=O` [9b], the half-maximal inhibitory concentration (IC50) in assay [1] came out at 79 µM; in assay [2] (Homo sapiens) it was 23.2 ± 2.64 µM. The Emax in assay [2] (Homo sapiens) is 122 ± 1.84%; in assay [4] (Homo sapiens), 123 ± 8.46%. In assay [3], the “ABTS+ (%)” value came out at 14%. For the same compound, the EC50 in assay [4] (Homo sapiens) is 193 ± 36.7 µM.
Take `C/[N+]([O-])=C/Cn1cc(Br)c(=O)[nH]c1=O` [9d]: 35 µM corresponded to half-maximal inhibition in assay [1] (IC50). In assay [2] (Homo sapiens), the IC50 amounted to 50.2 ± 8.87 µM and the Emax came to 120 ± 4.62%. Besides, the “ABTS+ (%)” value in assay [3] is reported as 12%. Moreover, in assay [4] (Homo sapiens), the Emax was 125 ± 8.05% and the concentration for a half-maximal effect (EC50) worked out at 29.2 ± 7.72 µM.
Turning to `C/[N+]([O-])=C/Cn1cc(Cl)c(=O)[nH]c1=O` [9e], in assay [1], the midpoint of inhibition, the IC50, lay at 65 µM. Moreover, in assay [2] (Homo sapiens), the IC50 turned out to be 12 ± 1.71 µM and the Emax turned out to be 98.6 ± 2.24%. Moreover, the “ABTS+ (%)” value in assay [3] is on record as 19%. In addition, in assay [4] (Homo sapiens), the Emax was found to be 99.7 ± 5.98% and the concentration for a half-maximal effect (EC50) is 165 ± 26.1 µM.
Consider `C/[N+]([O-])=C/Cn1cnc2c(N)ncnc21` [9f], for which the IC50 in assay [1] was determined as 31 µM; in assay [2] (Homo sapiens), 3.93 ± 0.05 µM. Moreover, the Emax in assay [2] (Homo sapiens) was 129 ± 2.26%. Further, the “ABTS+ (%)” value in assay [3] worked out at 6%. For the same compound, the EC50 in assay [4] (Homo sapiens) is 1.55 ± 0.15 µM.
In turn, `C/[N+]([O-])=C/Cn1cc(Br)c(=O)n(C/C=[N+](/C)[O-])c1=O` [9i] came in with an IC50 in assay [1] of 57.5 µM. In assay [2] (Homo sapiens), the concentration for half-maximal inhibition (IC50) was found to be 43.1 ± 6.5 µM and the Emax stood at 121 ± 5.82%. The “ABTS+ (%)” value in assay [3] was 75%. In assay [4] (Homo sapiens), the Emax stood at 110 ± 3.97% and the concentration for a half-maximal effect (EC50) stood at 23.6 ± 4.17 µM.
`CC(C)(C)[N+]([O-])=Cc1ccccc1` [PBN, α-phenyl-N-tert-butylnitrone, reference compound]: the “LOX (%) inhibition” value in assay [1] (tested at 100 µM) was found to be 23%. In addition, in assay [2], the “Maximal Inhibition Mean±SEM (LDH release)” value was 77.51 ±5.75% and ≈ 75%; the IC50 is 5.28 µM and ~5 µM. The “ABTS+ (%)” value in assay [3] is recorded as 5%. Also, in assay [4], the “Maximal Activity mean±SEM (neuroprotection)” value is 96.93 ±6.97% and ≈ 96%; the EC50 was 33.5 µM and ~35 µM.

Source of the values: article PMC8955307, “Nucleobase-Derived Nitrones: Synthesis and Antioxidant and Neuroprotective Activities in an In Vitro Model of Ischemia–Reperfusion” (International Journal of Molecular Sciences, 2022).
